Drawing on patent US20260258025A1, “INHIBITORS OF TDP-43 AND TAU AGGREGATION” (Aquinnah Pharmaceuticals, inc., priority 2023, published 2026), this text covers IC50 for 1 compound.

The test system of this experiment is tau stress granules. As to the kind of experiment: SY5Y-tT1 tau arsenite assay (tau stress granules per cell). It is filed as cell-based. The conditions noted are these: SY5Y-tT1 cells, 2 hours compound, 90 minutes arsenite, 50% reduction of granules per cell, read-out: IC50, Inhibitor Activity of Tau Stress Granules. Summed up:
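SY5Y-tT1 cells were tetracycline-induced for 48 h, pretreated 2 h with serially diluted compounds (PERK inhibitor GSK2606414 as control), then exposed to arsenite for 90 min at 37° C. After fixation and Hoechst staining, tau stress granules per cell were imaged; IC50 is the concentration halving granules per cell.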

Molecules are shown by their SMILES.

Take `Cc1cc(-c2ccc(C3CCN(C(C)C)CC3)cc2)sc1C(=O)N1CC[C@H](N)C1` [Compound 183, (S)-(3-aminopyrrolidin-1-yl)(5-(4-(1-isopropylpiperidin-4-yl)phenyl)-3-methylthiophen-2-yl)methanone]: the IC50 is less than 500 nM.
